Laboratory results taken from ChEMBL document CHEMBL1157902, “New diterpenoids from Caesalpinia species and their cytotoxic activity” (Bioorg Med Chem Lett, 2010).
pIC50: −log10 of the molar value.

What was measured:
HeLa = assay: Cytotoxicity against human HeLa cells by MTT assay; assay type: functional, cell-based
HL-60 = assay: Cytotoxicity against human HL60 cells by MTT assay; assay type: functional, cell-based

CC[C@@]1(O)C(=O)OCc2c1cc1n(c2=O)Cc2cc3ccccc3nc2-1 [CAMPTOTHECIN]
pIC50 (HeLa): 6.03 | pIC50 (HL-60): 6.23

C[C@H]1C2=CC(=O)O[C@]2(O)C[C@H]2[C@H]1[C@@H](O)[C@@H](OC(=O)c1ccccc1)[C@@]1(O)C(C)(C)CCC[C@]21C
Activity (HeLa): Dose-dependent effect | pIC50 (HeLa): 4.28 | Activity (HL-60): Dose-dependent effect | pIC50 (HL-60): 4.35

CC(=O)O[C@@H]1[C@H]2[C@@H](C)c3ccoc3C[C@@H]2[C@@]2(C)CCCC(C)(C)[C@]2(O)[C@@H]1OC(=O)/C=C/c1ccccc1
Activity (HeLa): Dose-dependent effect | pIC50 (HeLa): 4.48 | Activity (HL-60): Dose-dependent effect | pIC50 (HL-60): 4.76

COc1cc([C@@H]2c3cc4c(cc3[C@@H](O[C@@H]3O[C@@H]5CO[C@@H](C)O[C@H]5[C@H](O)[C@H]3O)[C@H]3COC(=O)[C@H]23)OCO4)cc(OC)c1O [ETOPOSIDE]
pIC50 (HeLa): 5.05

C[C@H]1c2ccoc2C[C@H]2[C@H]1[C@@H](OC(=O)c1ccccc1)[C@@H](OC(=O)c1ccccc1)[C@@]1(O)C(C)(C)CCC[C@]21C
Activity (HeLa): Dose-dependent effect | pIC50 (HeLa): 4.47 | Activity (HL-60): Dose-dependent effect | pIC50 (HL-60): 4.70
